Test results published in ChEMBL document CHEMBL1123761, “Inhibition of the mammalian beta-lactamase renal dipeptidase (dehydropeptidase-I) by (Z)-2-(acylamino)-3-substituted-propenoic acids” (J Med Chem, 1987).

Molecular target: T1, Dipeptidase 1 (Sus scrofa, UniProt P22412)
T1 sequence (P22412 whole entry): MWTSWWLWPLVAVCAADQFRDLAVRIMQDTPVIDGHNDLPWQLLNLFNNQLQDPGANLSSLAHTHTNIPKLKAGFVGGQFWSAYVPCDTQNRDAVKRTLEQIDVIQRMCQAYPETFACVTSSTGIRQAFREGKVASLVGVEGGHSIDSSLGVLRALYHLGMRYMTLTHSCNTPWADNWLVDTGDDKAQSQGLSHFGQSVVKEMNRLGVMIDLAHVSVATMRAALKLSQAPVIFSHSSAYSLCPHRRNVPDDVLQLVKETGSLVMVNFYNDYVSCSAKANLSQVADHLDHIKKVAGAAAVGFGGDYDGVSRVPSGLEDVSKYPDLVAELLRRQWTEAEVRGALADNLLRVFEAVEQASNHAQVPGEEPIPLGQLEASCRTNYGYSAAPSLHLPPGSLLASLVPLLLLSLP
Assay: Inhibitory activity against beta-lactamase renal dipeptidase

In order of falling Ki:
1. C/C=C(\NC(=O)C1(C)CC1(Cl)Cl)C(=O)O (stereo not drawn)  164000 nM
2. C/C=C(\NC(=O)CCCNC(C)=O)C(=O)O  102000 nM
3. C/C=C(\NC(=O)c1ccccc1)C(=O)O  70000 nM
4. C/C=C(\NC(=O)CC(C)CCCC(C)(C)O)C(=O)O (stereo not drawn)  67000 nM
5. C=C(NC(=O)C1CC1(C)C)C(=O)O (stereo not drawn)  52000 nM
6. C/C=C(\NC(=O)CCCNC(=O)CC(C)C)C(=O)O  52000 nM
7. C/C=C(\NC(=O)CCCCCNC(=O)CC)C(=O)O  41000 nM
8. C/C=C(\NC(=O)CCCC(=O)OCC)C(=O)O  39000 nM
9. C/C=C(\NC(=O)CCCCCCCCCCC)C(=O)O  35000 nM
10. C=CCCCCCCCCC(=O)N/C(=C\C)C(=O)O  34000 nM
11. C/C=C(\NC(=O)CCCCCCCC)C(=O)O  32000 nM
12. C/C=C(\NC(=O)CSCC)C(=O)O  31000 nM
13. C/C=C(\NC(=O)C=C(C)C)C(=O)O  28000 nM
14. C/C=C(\NC(=O)CCCCCCCCC(=O)O)C(=O)O  28000 nM
15. C/C=C(\NC(=O)c1ccccc1Cl)C(=O)O  25000 nM
16. C/C=C(\NC(=O)CCCCC#N)C(=O)O  25000 nM
17. C/C=C(\NC(=O)CC1CCCCC1)C(=O)O  25000 nM
18. C/C=C(\NC(=O)c1cccc(Cl)c1)C(=O)O  22000 nM
19. C/C=C(\NC(=O)CC(C)(C)C)C(=O)O  20000 nM
20. C/C=C(\NC(=O)CCCCCBr)C(=O)O  19000 nM
21. C/C=C(\NC(=O)CCCCCCCCCC)C(=O)O  19000 nM
22. C/C=C(\NC(=O)CCCCC(=O)OCC)C(=O)O  18000 nM
23. C/C=C(\NC(=O)C1CCCCC1)C(=O)O  15000 nM
24. C/C=C(\NC(=O)CCC(C)C)C(=O)O  14000 nM
25. C/C=C(\NC(=O)C1CCCCCC1)C(=O)O  12000 nM
26. C/C=C(\NC(=O)[C@@H]1C[C@@H]1C)C(=O)O  12000 nM
27. C/C=C(\NC(=O)C1CC(C)(C)C1)C(=O)O  11200 nM
28. CCCCC/C=C(/NC(=O)C1CC1(C)C)C(=O)O (stereo not drawn)  11200 nM
29. C/C=C(\NC(=O)CCCc1cccs1)C(=O)O  10000 nM
30. C/C=C(\NC(=O)CCCCC(=O)N/C(=C\C)C(=O)O)C(=O)O  10000 nM
31. C/C=C(\NC(=O)CC1CCCC1)C(=O)O  9800 nM
32. CCCCC/C=C(\NC(=O)[C@@H]1CC1(C)C)C(=O)O  8800 nM
33. C/C=C(\NC(=O)C1C(C)C1(C)C)C(=O)O (stereo not drawn)  7200 nM
34. C/C=C(\NC(=O)[C@@H]1C[C@H]1C(C)(C)C)C(=O)O  6500 nM
35. C/C=C(\NC(=O)[C@@H]1C[C@H]1c1ccccc1)C(=O)O  5000 nM
36. C/C=C(\NC(=O)C1CCC1C)C(=O)O (stereo not drawn)  4700 nM
37. C/C=C(\NC(=O)[C@H]1[C@H](C)[C@@H]1C)C(=O)O  4600 nM
38. C/C=C(\NC(=O)[C@H]1[C@@H]2CCCC[C@@H]21)C(=O)O  4200 nM
39. C/C=C(\NC(=O)CC(C)CCCC(C)C)C(=O)O (stereo not drawn)  4000 nM
40. CN(C)CCCC/C=C(\NC(=O)C1CC1(C)C)C(=O)O (stereo not drawn)  3450 nM
41. C/C=C(\NC(=O)C(C)C(C)C)C(=O)O (stereo not drawn)  3300 nM
42. C/C=C(\NC(=O)C1CC1)C(=O)O  3000 nM
43. CC(C)CC(=O)N/C(=C\CCC(=O)O)C(=O)O  2700 nM
44. C/C=C(\NC(=O)C1CC1(F)F)C(=O)O (stereo not drawn)  2100 nM
45. C/C=C(\NC(=O)[C@@H]1C[C@H]1C)C(=O)O  1700 nM
46. C/C=C(\NC(=O)C1CC12CC2)C(=O)O (stereo not drawn)  1600 nM
47. C/C=C(\NC(=O)[C@@H]1C[C@H]1CC)C(=O)O  1600 nM
48. CN(C)CCCCC/C=C(\NC(=O)C1CC1(C)C)C(=O)O (stereo not drawn)  1280 nM
49. CC1(C)CC1C(=O)N/C(=C\CCCCC[n+]1ccccc1)C(=O)[O-] (stereo not drawn)  1090 nM
50. CC1(C)CC1C(=O)N/C(=C\CCCCCN)C(=O)O (stereo not drawn)  1000 nM
51. CC1(C)CC1C(=O)N/C(=C\CCCCC[N+](C)(C)CCO)C(=O)[O-] (stereo not drawn)  910 nM
52. C=CCNCCCCC/C=C(\NC(=O)C1CC1(C)C)C(=O)O (stereo not drawn)  870 nM
53. CCN(CC)CCCCC/C=C(\NC(=O)C1CC1(C)C)C(=O)O (stereo not drawn)  860 nM
54. CC1(C)CC1C(=O)N/C(=C\CCCCCNC1=NCCN1)C(=O)O (stereo not drawn)  840 nM
55. CC1(C)CC1C(=O)N/C(=C\CCCCCCCN)C(=O)O (stereo not drawn)  810 nM
56. CC1(C)CC1C(=O)N/C(=C\CCCCCNC=N)C(=O)O (stereo not drawn)  780 nM
57. C#CCNCCCCC/C=C(\NC(=O)C1CC1(C)C)C(=O)O (stereo not drawn)  740 nM
58. CC1(C)CC1C(=O)N/C(=C\CCCCCNCCP(=O)(O)O)C(=O)O (stereo not drawn)  580 nM
59. CC1(C)CC1C(=O)N/C(=C\CCCCCCC[N+](C)(C)C)C(=O)[O-] (stereo not drawn)  570 nM
60. CN(CCCC/C=C(\NC(=O)C1CC1(C)C)C(=O)O)CC(=O)O (stereo not drawn)  560 nM
61. CN(C)CCCCCCC/C=C(\NC(=O)C1CC1(C)C)C(=O)O (stereo not drawn)  520 nM
62. CC1(C)CC1C(=O)N/C(=C\CCCCCCC[N+](C)(C)Cc1ccccc1)C(=O)[O-] (stereo not drawn)  450 nM
63. CC1(C)CC1C(=O)N/C(=C\C1CC1)C(=O)O (stereo not drawn)  440 nM
64. CC1(C)CC1C(=O)N/C(=C\C1CCCCC1)C(=O)O (stereo not drawn)  400 nM
65. CC1(C)CC1C(=O)N/C(=C\CCCCCNCP(=O)(O)O)C(=O)O (stereo not drawn)  400 nM
66. CN(CCCCCC/C=C(\NC(=O)C1CC1(C)C)C(=O)O)CC(=O)O (stereo not drawn)  400 nM
67. CC1(C)CC1C(=O)N/C(=C\CCCBr)C(=O)O (stereo not drawn)  380 nM
68. CC1(C)CC1C(=O)N/C(=C\CCCCCNC(N)=O)C(=O)O (stereo not drawn)  300 nM
69. CN(CCCCC/C=C(\NC(=O)C1CC1(C)C)C(=O)O)CC(=O)O (stereo not drawn)  290 nM
70. COC(=O)CSCCC/C=C(\NC(=O)C1CC1(C)C)C(=O)O (stereo not drawn)  280 nM
71. CC(NCCCCC/C=C(\NC(=O)C1CC1(C)C)C(=O)O)P(=O)(O)O (stereo not drawn)  280 nM
72. CC1(C)CC1C(=O)N/C(=C\CCCCCBr)C(=O)O (stereo not drawn)  270 nM
73. CC1(C)CC1C(=O)N/C(=C\CCCSCC(N)C(=O)O)C(=O)O (stereo not drawn)  270 nM
74. CC1(C)CC1C(=O)N/C(=C\CCCCCSCC(N)=O)C(=O)O (stereo not drawn)  250 nM
75. CC1(C)CC1C(=O)N/C(=C\CC(F)(F)F)C(=O)O (stereo not drawn)  240 nM
76. CC1(C)CC1C(=O)N/C(=C\CCCCCO)C(=O)O (stereo not drawn)  230 nM
77. CC(=O)NCCCCC/C=C(\NC(=O)C1CC1(C)C)C(=O)O (stereo not drawn)  230 nM
78. CC1(C)CC1C(=O)N/C(=C\CCCCCSCC(N)C(=O)O)C(=O)O (stereo not drawn)  230 nM
79. C=CCC/C=C(\NC(=O)C1CC1(C)C)C(=O)O (stereo not drawn)  230 nM
80. CC1(C)CC1C(=O)N/C(=C\CCCSCP(=O)(O)O)C(=O)O (stereo not drawn)  220 nM
81. CC1(C)C[C@@H]1C(=O)N/C(=C\CCCCSC[C@H](N)C(=O)O)C(=O)O (stereo in doubt; 174) [CILASTATIN]  210 nM
82. CC1(C)CC1C(=O)N/C(=C\CCCCC#N)C(=O)O (stereo not drawn)  210 nM
83. COC(=O)CSCCCCC/C=C(\NC(=O)C1CC1(C)C)C(=O)O (stereo not drawn)  200 nM
84. CC1(C)C[C@@H]1C(=O)N/C(=C\CCCCSC[C@H](N)C(=O)O)C(=O)O (stereo in doubt; 175) [CILASTATIN]  190 nM
85. C[N+](C)(C)CCCCC/C=C(\NC(=O)C1CC1(Cl)Cl)C(=O)O (stereo not drawn)  180 nM
86. COCCCCC/C=C(\NC(=O)C1CC1(C)C)C(=O)O (stereo not drawn)  180 nM
87. CC1(C)C[C@@H]1C(=O)N/C(=C\CCCCCNC(C)(C)P(=O)(O)O)C(=O)O  180 nM
88. CC1(C)CC1C(=O)N/C(=C\CCCCCS)C(=O)O (stereo not drawn)  170 nM
89. CC1(C)CC1C(=O)N/C(=C\CCCCCCBr)C(=O)O (stereo not drawn)  160 nM
90. CC1(C)CC1C(=O)N/C(=C\CCCCSCC(=O)C(=O)O)C(=O)O (stereo not drawn)  160 nM
91. CCCCCC/C=C(\NC(=O)C1CC1(C)C)C(=O)O (stereo not drawn)  160 nM
92. COCCCC/C=C(\NC(=O)C1CC1(C)C)C(=O)O (stereo not drawn)  160 nM
93. CC(NCCCCC/C=C(\NC(=O)[C@H]1CC1(C)C)C(=O)O)P(=O)(O)O (stereo partly drawn)  160 nM
94. CC1(C)CC1C(=O)N/C(=C\CCCCBr)C(=O)O (stereo not drawn)  150 nM
95. CNC(CSCCCC/C=C(\NC(=O)[C@H]1CC1(C)C)C(=O)O)C(=O)O (stereo partly drawn)  150 nM
96. CSCCCCC/C=C(\NC(=O)C1CC1(C)C)C(=O)O (stereo not drawn)  150 nM
97. CC1(C)CC1C(=O)N/C(=C\CCC(=O)O)C(=O)O (stereo not drawn)  140 nM
98. CC1(C)CC1C(=O)N/C(=C\CCCCSCC(=O)O)C(=O)O (stereo not drawn)  130 nM
99. CC1(C)CC1C(=O)N/C(=C\CCCSc1ncccc1O)C(=O)O (stereo not drawn)  130 nM
100. CC1(C)C[C@@H]1C(=O)N/C(=C\CCCCSC[C@H](N)C(=O)O)C(=O)O (stereo in doubt; 176) [CILASTATIN]  110 nM
101. CC1(C)CC1C(=O)N/C(=C\CCCCCCCBr)C(=O)O (stereo not drawn)  110 nM
102. CCCCCCCCC/C=C(\NC(=O)C1CC1(C)C)C(=O)O (stereo not drawn)  110 nM
103. CCCCCCCC/C=C(\NC(=O)C1CC1(C)C)C(=O)O (stereo not drawn)  110 nM
104. CC1(C)CC1C(=O)N/C(=C\CCCCSc1ccccc1)C(=O)O (stereo not drawn)  100 nM
105. CCCCCCC/C=C(\NC(=O)C1CC1(C)C)C(=O)O (stereo not drawn)  96 nM
106. CC1(C)CC1C(=O)N/C(=C\CCCCCC/C=C(\NC(=O)C1CC1(C)C)C(=O)O)C(=O)O (stereo not drawn)  92 nM
107. CC1(C)CC1C(=O)N/C(=C\CCCCS(=O)(=O)O)C(=O)O (stereo not drawn)  87 nM
108. CC1(C)CC1C(=O)N/C(=C\CCCCCC#N)C(=O)O (stereo not drawn)  82 nM
109. C/C=C(\NC(=O)C1CC1(Cl)Cl)C(=O)O (stereo not drawn)  80 nM
110. CC1(C)CC1C(=O)N/C(=C\CCCCSc1ccccc1C(=O)O)C(=O)O (stereo not drawn)  60 nM
111. CCCCC/C=C(\NC(=O)C1CC1(Cl)Cl)C(=O)O (stereo not drawn)  60 nM
112. CC(=O)NC(CSCCCC/C=C(\NC(=O)[C@H]1CC1(C)C)C(=O)O)C(=O)O (stereo partly drawn)  60 nM
113. CC1(C)CC1C(=O)N/C(=C\CCCCC(=O)O)C(=O)O (stereo not drawn)  58 nM
114. CCOC(=S)SCCCCC/C=C(\NC(=O)C1CC1(C)C)C(=O)O (stereo not drawn)  44 nM
115. CC1(C)CC1C(=O)N/C(=C\CCCCSc1ncccc1C(=O)O)C(=O)O (stereo not drawn)  40 nM
116. C/C=C(\NC(=O)C1CC1(Br)Br)C(=O)O (stereo not drawn)  30 nM
117. CC1(C)CC1C(=O)N/C(=C\CCCCSc1ncccc1O)C(=O)O (stereo not drawn)  20 nM
118. CCC/C=C(\NC(=O)C1CC1(Br)Br)C(=O)O (stereo not drawn)  15 nM
